Laboratory results as given in patent US10538561B2, “Peptide for treating inflammatory diseases” (priority 2015, dated 2020).

How the values were obtained:
[1] = Cell viability (MTT assay) in SK-MEL-28; format: cell-based, Human; settings: human, SK-MEL-28 melanoma cells
Protocol: (§1) Cell Lines/Cells: Human Keratinocytes (HaCaT); Human melanoma (SK-MEL-28); Human PBMCs. Test Item: IS181 Treatment regimen: Single addition—24 h, ^#Multiple additions (3)−72 h; Concentration range: 1 ng/ml-2 mg/ml (triplicate wells); Sera Condition: […] Method of estimation: MTT assay. […] Positive control: Triton-X-100, Doxorubicin Hydrochloride.

[2] = test system: Human melanoma (SK-MEL-28); assay: Cell viability (MTT assay) in SK-MEL-28; format: cell-based
Protocol: as §1

[3] = test system: Human endothelial cells (EA.hy 926); assay: DNA fragmentation in endothelial cells; format: cell-based; settings: for % induction of DNA fragmentation: EA.hy926, 48 h
Protocol: Cell lines: Human endothelial cells (EA.Hy 926); test item: IS 181; treatment regimen: multiple additions (2)—48 hours; concentration range: 100 μg/ml to 5000 μg/ml (Duplicate wells); sera condition: medium containing 1% FBS. […] Cells were lysed and fragmented DNA was precipitated using PEG/NaCl solution. The fragmented DNA was incubated with 0.2 μg/ml of Hoechst 33258 dye and fluorescence was read at 360 ex/460 em. End point: Percentage induction of DNA fragmentation with respect to untreated. Positive control: anthralin. IS 181 led to induction of DNA fragmentation in Ea.hy.926 cells at all the concentrations tested. […] The overall effect of IS 181 on induction of DNA fragmentation with respect to untreated in Ea.hy.926 cells ranged from 15.09% to 64.15% (FIGS. 10A-10B and Table-10).

TNF-α = TNF-α level in TNF-α stimulated HaCaT; format: cell-based, Human; settings: 24 h
Protocol: Effect on pro-inflammatory cytokines against TNF-α/LPS+PMA stimulation: TNF-α; IFN-γ; TARC; TSLP; IL-6; IL-8: Cell lines: Human keratinocytes (HaCaT); test item (TI); IS181; experimental steps: pre-treatment of cells with TI for 2 hours; stimulation with TNF-α: 20 ng/ml; stimulation with LPS+PMA-10 μg/ml LPS+40 ng/ml PMA; supernatant collection for cytokine analysis after 24 hours; concentration range: 0.1 μg/ml-100 μg/ml (duplicate wells); cytokines: TNF-α; IFN-γ; TARC; TSLP; IL-6; IL-8. Method of estimating cytokines: ELISA; positive control: dexamethasone.
Cell line: HaCaT (Human Keratinocytes); TI Treatment regimen: Pretreatment for 2 h; TI Concentration range: 0.1 μg/ml-100 μg/ml (duplicate wells); TNF-α stimulation: 20 ng/ml; LPS+PMA stimulation: 10 μg/ml LPS+40 ng/ml PMA; Time point for supernatants collection: 24 h; Method of estimation: ELISA; Positive control: Dexamethasone

EGFR (ErbB1) = EGFR (ErbB1) (Homo sapiens, UniProt P00533); assay: Biochemical kinase assay EGFR
Protocol: (§2) Test system: cell free assays; test items: IS181; concentrations tested: 1 ng/ml-5000 μg/ml; Kinases: a) Cell free assays: EGFR (ErbB1); FLT1 (VEGFR1); JAK1; JAK3 MAP2K1 (MEK1); PDGFRA (PDGFR alpha); PRKCA (PKC alpha); b) cell based assay: JAK-STAT.

JAK1 = JAK1 (Homo sapiens, UniProt P23458); assay: Biochemical kinase assay JAK1
Protocol: as §2

[4] = In vitro combination Anthralin and IS 181 (MTT); format: cell-based, Human; settings: human, HaCaT keratinocytes, read-out: percent inhibition of cell viability/cytotoxicity
Protocol: (§3) Percentage cytotoxicity was determined using MTT assay.

[5] = test system: Human Keratinocytes (HaCaT); assay: In vitro combination Anthralin and IS 181 (MTT); format: cell-based; settings: 72 h
Protocol: as §3

Chain of EGFR (ErbB1) (P00533 25-1210): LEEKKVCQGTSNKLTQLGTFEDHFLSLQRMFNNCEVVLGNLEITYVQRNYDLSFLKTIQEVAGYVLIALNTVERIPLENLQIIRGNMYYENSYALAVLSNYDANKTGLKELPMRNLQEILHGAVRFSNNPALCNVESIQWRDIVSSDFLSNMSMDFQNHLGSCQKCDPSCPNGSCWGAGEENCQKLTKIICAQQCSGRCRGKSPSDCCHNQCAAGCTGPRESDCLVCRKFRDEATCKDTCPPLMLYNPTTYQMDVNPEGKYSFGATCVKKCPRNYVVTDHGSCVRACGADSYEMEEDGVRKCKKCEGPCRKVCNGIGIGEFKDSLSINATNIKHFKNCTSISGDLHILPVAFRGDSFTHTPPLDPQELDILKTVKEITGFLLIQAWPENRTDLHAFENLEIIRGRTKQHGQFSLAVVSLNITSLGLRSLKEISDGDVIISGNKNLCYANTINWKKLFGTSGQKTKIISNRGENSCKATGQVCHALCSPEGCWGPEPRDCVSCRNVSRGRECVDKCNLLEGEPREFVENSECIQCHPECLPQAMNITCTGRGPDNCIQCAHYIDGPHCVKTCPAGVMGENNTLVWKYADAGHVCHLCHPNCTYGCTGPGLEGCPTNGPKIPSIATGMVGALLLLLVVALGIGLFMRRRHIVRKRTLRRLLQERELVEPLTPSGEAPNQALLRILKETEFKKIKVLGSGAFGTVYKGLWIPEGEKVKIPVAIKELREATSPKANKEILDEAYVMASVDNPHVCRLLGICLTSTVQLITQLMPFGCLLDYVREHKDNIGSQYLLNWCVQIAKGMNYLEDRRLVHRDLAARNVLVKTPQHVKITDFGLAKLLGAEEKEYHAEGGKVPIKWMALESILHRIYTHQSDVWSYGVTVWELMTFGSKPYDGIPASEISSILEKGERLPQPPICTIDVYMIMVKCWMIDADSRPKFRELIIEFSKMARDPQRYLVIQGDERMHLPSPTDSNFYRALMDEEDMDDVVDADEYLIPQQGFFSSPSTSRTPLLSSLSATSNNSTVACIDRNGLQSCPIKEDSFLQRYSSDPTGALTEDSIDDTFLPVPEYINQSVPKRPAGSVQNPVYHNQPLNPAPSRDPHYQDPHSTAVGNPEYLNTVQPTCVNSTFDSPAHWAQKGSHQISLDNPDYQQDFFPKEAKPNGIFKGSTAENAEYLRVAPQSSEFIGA
Chain of JAK1 (P23458 whole entry): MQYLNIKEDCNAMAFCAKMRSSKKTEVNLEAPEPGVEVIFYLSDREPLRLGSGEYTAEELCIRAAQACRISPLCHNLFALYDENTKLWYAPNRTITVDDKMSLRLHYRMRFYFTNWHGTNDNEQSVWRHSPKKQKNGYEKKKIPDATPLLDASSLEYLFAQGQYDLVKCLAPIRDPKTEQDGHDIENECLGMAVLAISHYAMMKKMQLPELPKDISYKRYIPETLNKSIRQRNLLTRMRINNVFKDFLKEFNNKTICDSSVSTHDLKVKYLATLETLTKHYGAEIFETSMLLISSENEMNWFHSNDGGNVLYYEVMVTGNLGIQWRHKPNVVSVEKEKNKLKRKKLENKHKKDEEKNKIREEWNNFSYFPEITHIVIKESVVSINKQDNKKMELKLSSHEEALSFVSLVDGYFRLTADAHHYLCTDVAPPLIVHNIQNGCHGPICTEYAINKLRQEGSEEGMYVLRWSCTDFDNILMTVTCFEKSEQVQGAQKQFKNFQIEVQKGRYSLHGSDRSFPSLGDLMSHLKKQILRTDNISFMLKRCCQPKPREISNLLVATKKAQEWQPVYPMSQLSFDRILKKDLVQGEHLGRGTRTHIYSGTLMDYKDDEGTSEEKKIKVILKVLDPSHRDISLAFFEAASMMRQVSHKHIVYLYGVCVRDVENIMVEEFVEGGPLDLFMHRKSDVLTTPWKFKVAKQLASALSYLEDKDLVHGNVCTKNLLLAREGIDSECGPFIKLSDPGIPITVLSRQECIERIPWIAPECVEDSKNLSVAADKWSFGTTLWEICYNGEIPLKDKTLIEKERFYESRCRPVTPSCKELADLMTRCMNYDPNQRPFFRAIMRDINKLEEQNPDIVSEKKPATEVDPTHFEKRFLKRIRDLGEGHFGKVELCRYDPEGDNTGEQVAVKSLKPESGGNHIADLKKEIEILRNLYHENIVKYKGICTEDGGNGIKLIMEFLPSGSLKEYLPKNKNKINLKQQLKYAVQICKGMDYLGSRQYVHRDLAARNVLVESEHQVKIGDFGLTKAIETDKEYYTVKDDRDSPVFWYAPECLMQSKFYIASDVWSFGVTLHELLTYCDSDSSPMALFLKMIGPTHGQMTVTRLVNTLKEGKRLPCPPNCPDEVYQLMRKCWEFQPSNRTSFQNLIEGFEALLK

H-WVQRVVEKFLK-OH [IS181, H-Trp-Val-Gln-Arg-Val-Val-Glu-Lys-Phe-Leu-Lys-OH]
cytotoxicity at 24 h, 0.001 μg/ml ([1]; SK-MEL-28, 24 h, 0.001 μg/ml): -4.04%
cytotoxicity at 24 h, 0.01 μg/ml ([1]; SK-MEL-28, 24 h, 0.01 μg/ml): -1.91%
cytotoxicity at 24 h, 0.05 μg/ml ([1]; SK-MEL-28, 24 h, 0.05 μg/ml): 2.39%
cytotoxicity at 24 h, 0.1 μg/ml ([1]; SK-MEL-28, 24 h, 0.1 μg/ml): -4.93%
cytotoxicity at 24 h, 0.5 μg/ml ([1]; SK-MEL-28, 24 h, 0.5 μg/ml): -1.29%
cytotoxicity at 24 h, 1 μg/ml ([1]; SK-MEL-28, 24 h, 1 μg/ml): -12.5%
cytotoxicity at 24 h, 5 μg/ml ([1]; SK-MEL-28, 24 h, 5 μg/ml): -16.3%
cytotoxicity at 24 h, 10 μg/ml ([1]; SK-MEL-28, 24 h, 10 μg/ml): -14%
cytotoxicity at 24 h, 50 μg/ml ([1]; SK-MEL-28, 24 h, 50 μg/ml): -6.96%
cytotoxicity at 24 h, 100 μg/ml ([1]; SK-MEL-28, 24 h, 100 μg/ml): -2.97%
cytotoxicity at 24 h, 1000 μg/ml ([1]; SK-MEL-28, 24 h, 1000 μg/ml): -11.9%
cytotoxicity at 72 h, 0.1 μg/ml ([1]; SK-MEL-28, 72 h, 0.1 μg/ml): -10.9%
cytotoxicity at 72 h, 0.5 μg/ml ([1]; SK-MEL-28, 72 h, 0.5 μg/ml): -14.2%
cytotoxicity at 72 h, 1 μg/ml ([1]; SK-MEL-28, 72 h, 1 μg/ml): -20%
cytotoxicity at 72 h, 5 μg/ml ([1]; SK-MEL-28, 72 h, 5 μg/ml): 9.03%
cytotoxicity at 72 h, 10 μg/ml ([1]; SK-MEL-28, 72 h, 10 μg/ml): 6.16%
cytotoxicity at 72 h, 50 μg/ml ([1]; SK-MEL-28, 72 h, 50 μg/ml): -4.36%
cytotoxicity at 72 h, 100 μg/ml ([1]; SK-MEL-28, 72 h, 100 μg/ml): 5.78%
cytotoxicity at 72 h, 500 μg/ml ([1]; SK-MEL-28, 72 h, 500 μg/ml): 94%
cytotoxicity at 72 h, 1000 μg/ml ([1]; SK-MEL-28, 72 h, 1000 μg/ml): 91%
cytotoxicity at 72 h, 2000 μg/ml ([1]; SK-MEL-28, 72 h, 2000 μg/ml): 92%
IC50 ([2]; 24 h): > 700 µM
IC50 value ([2]; 24 h): >1000 µg/mL
Selectivity Index -IC50 (PBMC)/IC50 (HaCaT/SK-MEL-28 cells) ([2]; 24 h): ≤2
IC50 ([2]; 72 h): 160 µM
Selectivity Index -IC50 (PBMC)/IC50 (HaCaT/SK-MEL-28 cells) ([2]; 72 h): 4
IC50 value ([2]; SK-MEL-28, 72 h): 230 µg/mL
cytotoxicity ([2]; SK-MEL-28, 72 h, concentrations ≥0.5 mg/ml): > 90%
cytotoxic effects ([2]; SK-MEL-28, after 24 h of treatment): no cytotoxic effects
% induction of DNA fragmentation ([3]; 100 μg/ml): 15.09%
% induction of DNA fragmentation ([3]; 500 μg/ml): 22.64%
% induction of DNA fragmentation ([3]; 1000 μg/ml): 64.15%
% induction of DNA fragmentation ([3]; 2000 μg/ml): 56.60%
% induction of DNA fragmentation ([3]; 5000 μg/ml): 22.64%
overall effect on induction of DNA fragmentation with respect to untreated ([3]; Ea.hy.926, 48 h, 100 μg/ml to 5000 μg/ml): 15.09% to 64.15%
TNF-α % decrease with respect to TNF-α (TNF-α; 0.1 μg/ml): −7.5%
TNF-α Conc (TNF-α; 0.1 μg/ml): 22731.8 pg/mL
TNF-α % decrease with respect to TNF-α (TNF-α; 1 μg/ml): 5.8%
TNF-α Conc (TNF-α; 1 μg/ml): 19924.1 pg/mL
TNF-α % decrease with respect to TNF-α (TNF-α; 5 μg/ml): −8.1%
TNF-α Conc (TNF-α; 5 μg/ml): 22852.1 pg/mL
TNF-α % decrease with respect to TNF-α (TNF-α; 10 μg/ml): −15.7%
TNF-α Conc (TNF-α; 10 μg/ml): 24469.9 pg/mL
TNF-α % decrease with respect to TNF-α (TNF-α; 100 μg/ml): −18.8%
TNF-α Conc (TNF-α; 100 μg/ml): 25125.0 pg/mL
inhibition at 10 µg/mL (EGFR (ErbB1); 10 μg/ml): 43%
inhibition at 50 µg/mL (EGFR (ErbB1); cell free, 50 μg/ml): 43%
inhibition at 100 µg/mL (EGFR (ErbB1); cell free, 100 μg/ml): -12%
inhibition at 250 µg/mL (EGFR (ErbB1); cell free, 250 μg/ml): -29%
inhibition at 500 µg/mL (EGFR (ErbB1); cell free, 500 μg/ml): -56%
inhibition at 1000 µg/mL (EGFR (ErbB1); cell free, 1000 μg/ml): -87%
inhibition at 2000 µg/mL (EGFR (ErbB1); cell free, 2000 μg/ml): -155%
inhibition at 10 µg/mL (JAK1; 10 μg/ml): 14%
inhibition at 50 µg/mL (JAK1; cell free, 50 μg/ml): 14%
inhibition at 100 µg/mL (JAK1; cell free, 100 μg/ml): -42%
inhibition at 250 µg/mL (JAK1; cell free, 250 μg/ml): -93%
inhibition at 500 µg/mL (JAK1; cell free, 500 μg/ml): -185%
cytotoxicity at 72 h, 10 μg/ml ([4]; IS 181 10 μg/ml alone): -10.4%
cytotoxicity at 72 h, 50 μg/ml ([4]; IS 181 50 μg/ml alone): -4.81%
cytotoxicity at 72 h, 100 μg/ml ([4]; IS 181 100 μg/ml alone): 8.16%
cytotoxicity at 72 h, 500 μg/ml ([4]; IS 181 500 μg/ml alone): 39.4%
cytotoxicity at 72 h, 1000 μg/ml ([4]; IS 181 1000 μg/ml alone): 62.4%
cytotoxicity at 72 h, 2000 μg/ml ([4]; IS 181 2000 μg/ml alone): 81.4%
cytotoxicity at 72 h, 5000 μg/ml ([4]; IS 181 5000 μg/ml alone): 94.2%
IC50 value of IS 181 ([5]; Anthralin 0 μM): 695.50 µg/mL
IC50 value of IS 181 ([5]; with Anthralin 0.01 μM): 872.80 µg/mL
IC50 value of IS 181 ([5]; with Anthralin 0.05 μM): 908.50 µg/mL
IC50 value of IS 181 ([5]; with Anthralin 0.1 μM): 677.60 µg/mL
